System: dermatitis in the hands
Assay: Example 4: middle-aged patient with dermatitis in the hands
Format: in vivo, human
Settings: given together: clobetasol ointment (0.025%) twice a day 21 days, desloratadine 5 mg once a day + hydroxyzine 25 mg twice a day 21 days, cyclosporine 100 mg twice a day 28 days; one patient

| SMILES | scaling and chronic inflammation |
| --- | --- |
| Clc1ccc2c(c1)CCc1cccnc1C2=C1CCNCC1 [desloratadine] | did not improve |
| OCCOCCN1CCN(C(c2ccccc2)c2ccc(Cl)cc2)CC1 (centres unmarked) [hydroxyzine] | did not improve |

— patent US20230293460A1, “METHOD FOR TREATING DERMATITIS” (CHANG GUNG MEMORIAL HOSPITAL, LINKOU, priority 2020, published 2023)
